Experimental data published in ChEMBL document CHEMBL5365451, “Discovery of CVN417, a Novel Brain-Penetrant α6-Containing Nicotinic Receptor Antagonist for the Modulation of Motor Dysfunction” (J Med Chem, 2023).
Activity calls are given as the source filed them. The rule behind the calls is not given here.

Columns and labels:
[1] = Oral bioavailability in Sprague-Dawley rat at 3 mg/kg by LC-MS/MS analysis; assay type: ADME, organism-based; conditions: in vivo
[2] = Plasma protein binding in mouse assessed as unbound fraction by rapid equilibrium dialysis; assay type: ADME, cell-free
[3] = species: Mus musculus; test: Anti-parkinson activity in C57BL6/J mouse model assessed as reduction in 10p 50 Hz induced DA release in striatum by fast-scan cyclic voltammetry analysis; assay type: functional, organism-based
[4] = Cmax in Sprague-Dawley rat at 10 mg/kg, po by LC-MS/MS analysis; assay type: ADME, organism-based; set-up: dose 10 mg/kg, route po; conditions: in vivo
[5] = Ratio of drug concentration in Sprague-Dawley rat brain to plasma assessed as unbound fraction at 10 mg/kg, po measured after 6 hrs by LC-MS/MS analysis; assay type: ADME, organism-based; conditions: read-out: K(p,uu,brain)
[6] = Metabolic stability in rat hepatocytes assessed as intrinsic clearance measured per 10^6 cells; assay type: ADME, cell-based, Hepatocyte
[7] = Metabolic stability in dog liver microsome assessed as intrinsic clearance preincubated for 60 mins followed by NADPH addition and measured after 60 mins by LC-MS/MS analysis; assay type: ADME, Canis lupus familiaris; conditions: liver microsomes, time 120 min, read-out: CLH
[8] = test system: Rattus norvegicus; test: Protection against tacrine-induced Sprague-Dawley rat tremulous jaw model assessed as decrease in tremor jaw movement at 3 to 25 mg/kg, po pretreated with compound for 90 mins followed by tacrine addition and measured after 5 mins; assay type: functional, organism-based; conditions: dose 3-25 mg/kg, time 95.0 min
[9] = species: Mus musculus; test: Anti-parkinson activity in C57BL6/J mouse model assessed as reduction in Ip induced DA release in striatum in presence of DHbetaE by fast-scan cyclic voltammetry analysis; assay type: functional, organism-based
[10] = Protein binding in mouse brain assessed as unbound fraction by rapid equilibrium dialysis; assay type: ADME, tissue-based
[11] = species: Rattus norvegicus; test: Antagonist activity at rat I2 receptor relative to control; set-up: scale not given: the % may be the effect or the level left; conditions: filed as antagonist
[12] = Half life in Sprague-Dawley rat at 3 mg/kg, po by LC-MS/MS analysis; assay type: ADME, organism-based; conditions: in vivo
[13] = Protein binding in rat brain assessed as unbound fraction by rapid equilibrium dialysis; assay type: ADME, tissue-based
[14] = Plasma protein binding in human assessed as unbound fraction by rapid equilibrium dialysis; assay type: ADME, cell-free
[15] = species: Mus musculus; test: Anti-parkinson activity in C57BL6/J mouse model assessed as reduction in 5p 50 Hz induced DA release in striatum by fast-scan cyclic voltammetry analysis; assay type: functional, organism-based
[16] = Antagonist activity at human alpha6-alpha3/beta2/beta3 V273S mutant nAChR expressed in HEK293 cells assessed as nicotine-induced intracellular calcium release incubated for 15 mins by FLIPR analysis; assay type: cell-based; conditions: HEK293, 0.25 h
[17] = target: T1, Sodium-dependent noradrenaline transporter (Homo sapiens, UniProt P23975); test: Binding affinity to human NET relative to control
T1 sequence (P23975 whole entry): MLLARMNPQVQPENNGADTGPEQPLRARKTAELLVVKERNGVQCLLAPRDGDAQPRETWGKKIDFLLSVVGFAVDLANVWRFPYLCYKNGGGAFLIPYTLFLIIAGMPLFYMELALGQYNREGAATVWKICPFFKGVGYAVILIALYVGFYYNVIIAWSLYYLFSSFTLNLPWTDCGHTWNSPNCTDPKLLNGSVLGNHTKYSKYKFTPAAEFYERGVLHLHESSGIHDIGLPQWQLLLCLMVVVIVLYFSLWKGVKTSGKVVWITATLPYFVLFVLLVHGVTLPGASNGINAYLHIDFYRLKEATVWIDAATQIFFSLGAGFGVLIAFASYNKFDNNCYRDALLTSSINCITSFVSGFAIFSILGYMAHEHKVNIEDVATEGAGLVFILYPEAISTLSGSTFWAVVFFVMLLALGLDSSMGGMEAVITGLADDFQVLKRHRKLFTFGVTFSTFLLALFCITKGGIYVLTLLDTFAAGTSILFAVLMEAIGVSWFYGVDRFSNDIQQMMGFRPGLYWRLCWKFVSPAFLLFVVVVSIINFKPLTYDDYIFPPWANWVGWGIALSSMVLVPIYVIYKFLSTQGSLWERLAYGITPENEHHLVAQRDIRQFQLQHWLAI

[18] = Oral bioavailability in Sprague-Dawley rat at 10 mg/kg by LC-MS/MS analysis; assay type: ADME, organism-based; conditions: in vivo
[19] = Clearance in Sprague-Dawley rat at 0.5 mg/kg, iv by LC-MS/MS analysis; assay type: ADME, organism-based; conditions: in vivo
[20] = Metabolic stability in human hepatocytes assessed as intrinsic clearance measured per 10^6 cells; assay type: ADME, cell-based, Hepatocyte
[21] = Drug exposure in Sprague-Dawley rat brain at 3 mg/kg, po measured for 2 hrs by LC-MS/MS analysis; assay type: ADME, organism-based; conditions: read-out: Drug uptake
[22] = target: T2, D(4) dopamine receptor (Homo sapiens, UniProt P21917); test: Antagonist activity at human D4 receptor; assay type: functional
T2 sequence (P21917 whole entry): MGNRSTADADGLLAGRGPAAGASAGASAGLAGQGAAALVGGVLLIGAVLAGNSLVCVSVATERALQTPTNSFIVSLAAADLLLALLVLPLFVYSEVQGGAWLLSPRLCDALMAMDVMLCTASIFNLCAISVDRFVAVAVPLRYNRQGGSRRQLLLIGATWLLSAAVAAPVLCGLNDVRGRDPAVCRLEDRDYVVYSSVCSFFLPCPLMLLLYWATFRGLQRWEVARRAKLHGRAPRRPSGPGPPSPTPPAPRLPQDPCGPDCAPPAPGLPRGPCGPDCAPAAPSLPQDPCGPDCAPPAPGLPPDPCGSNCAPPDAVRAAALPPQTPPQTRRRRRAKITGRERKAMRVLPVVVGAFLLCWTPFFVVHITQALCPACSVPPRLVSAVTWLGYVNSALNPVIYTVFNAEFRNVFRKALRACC

[23] = Metabolic stability in mouse hepatocytes assessed as intrinsic clearance measured per 10^6 cells; assay type: ADME, cell-based, Hepatocyte
[24] = AUC (0 to infinity) in Sprague-Dawley rat at 1 mg/kg, iv by LC-MS/MS analysis; assay type: ADME, organism-based; set-up: dose 1 mg/kg, route iv; conditions: in vivo
[25] = Metabolic stability in human liver microsome assessed as intrinsic clearance preincubated for 60 mins followed by NADPH addition and measured after 60 mins by LC-MS/MS analysis; assay type: ADME; conditions: liver microsomes, time 120 min, read-out: CLH
[26] = species: Rattus norvegicus; test: Anti-parkinson activity in Sprague-Dawley rat model assessed as decrease in spontaneous firing frequency measured after 15 mins by whole cell patch assay; assay type: functional, organism-based
[27] = test system: Rattus norvegicus; test: Protection against tacrine-induced po dosed Sprague-Dawley rat tremulous jaw model assessed as decrease in tremor duration pretreated with compound for 90 mins followed by tacrine addition and measured after 5 mins; assay type: functional, organism-based; conditions: dose 3-25 mg/kg, time 95.0 min
[28] = Metabolic stability in mouse liver microsome assessed as intrinsic clearance preincubated for 60 mins followed by NADPH addition and measured after 60 mins by LC-MS/MS analysis; assay type: ADME; conditions: liver microsomes, time 120 min, read-out: CLH
[29] = target: T1, Sodium-dependent noradrenaline transporter; test: Binding affinity to human NET
[30] = target: Neuronal acetylcholine receptor subunit alpha-7 (Homo sapiens) (UniProt P36544); test: Antagonist activity at human alpha7 nAChR at 10 uM relative to control; set-up: scale not given: the % may be the effect or the level left
Sequence of Neuronal acetylcholine receptor subunit alpha-7 (Homo sapiens) (P36544 whole entry): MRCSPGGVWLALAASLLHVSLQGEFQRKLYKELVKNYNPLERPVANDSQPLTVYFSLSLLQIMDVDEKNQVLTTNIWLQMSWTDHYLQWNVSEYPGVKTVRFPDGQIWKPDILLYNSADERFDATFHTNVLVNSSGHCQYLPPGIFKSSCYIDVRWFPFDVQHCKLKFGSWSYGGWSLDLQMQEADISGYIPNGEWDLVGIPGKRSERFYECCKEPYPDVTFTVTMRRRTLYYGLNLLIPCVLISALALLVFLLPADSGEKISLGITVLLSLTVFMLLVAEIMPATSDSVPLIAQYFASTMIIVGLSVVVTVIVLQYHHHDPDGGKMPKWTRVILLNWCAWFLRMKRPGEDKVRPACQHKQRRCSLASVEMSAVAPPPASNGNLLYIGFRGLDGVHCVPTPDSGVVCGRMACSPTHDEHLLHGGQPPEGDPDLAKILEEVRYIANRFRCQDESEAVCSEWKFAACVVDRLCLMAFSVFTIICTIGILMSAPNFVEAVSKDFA

[31] = Volume of distribution at steady state in Sprague-Dawley rat at 0.5 mg/kg, iv by LC-MS/MS analysis; assay type: ADME, organism-based; conditions: in vivo, read-out: Vdss
[32] = Metabolic stability in rat liver microsome assessed as intrinsic clearance preincubated for 60 mins followed by NADPH addition and measured after 60 mins by LC-MS/MS analysis; assay type: ADME; conditions: liver microsomes, time 120 min, read-out: CLH
[33] = target: Sigma non-opioid intracellular receptor 1 (Cavia porcellus) (UniProt Q60492); test: Agonist activity at guinea pig sigma 1 relative to control; conditions: filed as agonist
Sequence of Sigma non-opioid intracellular receptor 1 (Cavia porcellus) (Q60492 whole entry): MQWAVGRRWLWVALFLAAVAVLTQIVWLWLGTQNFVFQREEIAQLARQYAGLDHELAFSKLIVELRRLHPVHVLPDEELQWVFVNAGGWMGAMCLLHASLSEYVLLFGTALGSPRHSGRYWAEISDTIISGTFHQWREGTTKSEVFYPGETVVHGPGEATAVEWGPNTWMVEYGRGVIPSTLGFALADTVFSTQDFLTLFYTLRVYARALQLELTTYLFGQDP

[34] = Volume of distribution at steady state in Sprague-Dawley rat at 1 mg/kg, iv by LC-MS/MS analysis; assay type: ADME, organism-based; conditions: in vivo, read-out: Vdss
[35] = target: Neuronal acetylcholine receptor; alpha3/beta4 (Homo sapiens, UniProt P30926+P32297); test: Antagonist activity at human alpha3/beta4 nAChR expressed in HEK293 cells assessed as nicotine-induced intracellular calcium release incubated for 15 mins by FLIPR analysis; assay type: cell-based
Sequence of Neuronal acetylcholine receptor; alpha3/beta4 (P30926 whole entry): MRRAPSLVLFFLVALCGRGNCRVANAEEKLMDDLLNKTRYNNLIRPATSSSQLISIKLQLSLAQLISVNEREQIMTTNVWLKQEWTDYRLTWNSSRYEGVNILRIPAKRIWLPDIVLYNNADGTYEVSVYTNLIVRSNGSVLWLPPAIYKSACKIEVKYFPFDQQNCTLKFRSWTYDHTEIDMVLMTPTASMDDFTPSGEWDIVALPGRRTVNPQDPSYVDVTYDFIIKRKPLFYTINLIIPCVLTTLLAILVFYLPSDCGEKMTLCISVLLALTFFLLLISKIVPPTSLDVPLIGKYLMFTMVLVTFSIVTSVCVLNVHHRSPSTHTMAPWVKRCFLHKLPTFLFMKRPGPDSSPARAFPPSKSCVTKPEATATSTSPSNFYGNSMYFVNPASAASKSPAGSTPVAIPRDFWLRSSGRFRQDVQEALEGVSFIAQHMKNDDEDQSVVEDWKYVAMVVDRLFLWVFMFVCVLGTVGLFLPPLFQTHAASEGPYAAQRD
Sequence of Neuronal acetylcholine receptor; alpha3/beta4 (P32297 whole entry): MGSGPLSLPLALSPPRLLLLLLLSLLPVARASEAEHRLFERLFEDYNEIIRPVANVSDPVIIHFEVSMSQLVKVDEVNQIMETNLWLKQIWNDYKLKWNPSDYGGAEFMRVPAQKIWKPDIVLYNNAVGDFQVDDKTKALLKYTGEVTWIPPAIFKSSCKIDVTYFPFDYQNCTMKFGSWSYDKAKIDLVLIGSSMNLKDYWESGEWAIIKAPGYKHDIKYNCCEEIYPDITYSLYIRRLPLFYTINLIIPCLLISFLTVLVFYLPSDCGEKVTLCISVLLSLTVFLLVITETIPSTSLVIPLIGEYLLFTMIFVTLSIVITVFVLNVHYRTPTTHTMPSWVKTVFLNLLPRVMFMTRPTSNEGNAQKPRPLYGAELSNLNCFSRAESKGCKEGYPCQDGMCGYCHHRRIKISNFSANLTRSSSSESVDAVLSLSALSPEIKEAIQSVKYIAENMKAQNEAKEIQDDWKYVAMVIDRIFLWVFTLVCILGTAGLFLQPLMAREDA

[36] = target: Neuronal acetylcholine receptor; alpha4/beta2 (Homo sapiens, UniProt P17787+P43681); test: Antagonist activity at human alpha4/beta2 nAChR expressed in HEK293 cells assessed as nicotine-induced intracellular calcium release incubated for 15 mins by FLIPR analysis; assay type: cell-based
Sequence of Neuronal acetylcholine receptor; alpha4/beta2 (P17787 whole entry): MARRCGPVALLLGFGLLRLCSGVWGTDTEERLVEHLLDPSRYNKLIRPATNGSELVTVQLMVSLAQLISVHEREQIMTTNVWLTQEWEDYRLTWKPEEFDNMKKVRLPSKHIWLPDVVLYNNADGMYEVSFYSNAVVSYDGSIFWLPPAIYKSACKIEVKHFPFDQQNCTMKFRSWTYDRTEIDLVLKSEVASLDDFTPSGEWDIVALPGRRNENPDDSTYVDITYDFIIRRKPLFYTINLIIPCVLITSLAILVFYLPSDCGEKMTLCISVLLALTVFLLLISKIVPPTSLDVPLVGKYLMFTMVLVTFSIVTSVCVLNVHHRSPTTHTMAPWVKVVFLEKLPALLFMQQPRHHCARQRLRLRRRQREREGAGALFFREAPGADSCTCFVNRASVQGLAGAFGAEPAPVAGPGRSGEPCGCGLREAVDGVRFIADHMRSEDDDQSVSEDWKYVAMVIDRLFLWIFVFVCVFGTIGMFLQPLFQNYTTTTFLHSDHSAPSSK
Sequence of Neuronal acetylcholine receptor; alpha4/beta2 (P43681 whole entry): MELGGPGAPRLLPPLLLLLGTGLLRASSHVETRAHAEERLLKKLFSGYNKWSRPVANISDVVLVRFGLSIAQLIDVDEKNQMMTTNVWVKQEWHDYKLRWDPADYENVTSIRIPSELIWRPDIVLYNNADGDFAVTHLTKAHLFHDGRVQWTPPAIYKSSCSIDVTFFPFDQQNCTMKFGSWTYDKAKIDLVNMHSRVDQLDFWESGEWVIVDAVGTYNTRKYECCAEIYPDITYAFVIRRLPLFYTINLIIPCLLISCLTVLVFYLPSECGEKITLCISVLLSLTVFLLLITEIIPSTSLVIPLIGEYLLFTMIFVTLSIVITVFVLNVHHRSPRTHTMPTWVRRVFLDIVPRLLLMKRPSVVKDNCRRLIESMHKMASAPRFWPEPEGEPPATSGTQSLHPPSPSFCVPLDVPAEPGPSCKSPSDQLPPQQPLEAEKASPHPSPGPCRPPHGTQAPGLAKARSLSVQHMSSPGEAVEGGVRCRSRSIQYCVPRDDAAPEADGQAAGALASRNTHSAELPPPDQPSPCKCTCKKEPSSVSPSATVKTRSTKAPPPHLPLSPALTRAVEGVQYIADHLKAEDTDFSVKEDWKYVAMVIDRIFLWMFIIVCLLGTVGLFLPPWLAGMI

[37] = species: Mus musculus; test: Anti-parkinson activity in C57BL6/J mouse model assessed as reduction in Ip induced DA release in striatum by fast-scan cyclic voltammetry analysis; assay type: functional, organism-based
[38] = test system: Brain; test: Drug concentration in po dosed Sprague-Dawley rat brain measured after 2 hrs by LC-MS/MS analysis; assay type: functional, organism-based; conditions: dose 3-25 mg/kg
[39] = test system: Rattus norvegicus; test: Protection against tacrine-induced Sprague-Dawley rat tremulous jaw model assessed as decrease in tremor jaw movement at 25 mg/kg, po pretreated with compound for 90 mins followed by tacrine addition and measured after 5 mins; assay type: functional; set-up: scale not given: the % may be the effect or the level left; conditions: time 95 min, 1.583 h
[40] = Metabolic stability in dog hepatocytes assessed as intrinsic clearance measured per 10^6 cells; assay type: ADME, cell-based, Canis lupus familiaris, Hepatocyte
[41] = AUC (0 to infinity) in Sprague-Dawley rat at 0.5 mg/kg, iv by LC-MS/MS analysis; assay type: ADME, organism-based; set-up: dose 0.5 mg/kg, route iv; conditions: in vivo
[42] = Half life in Sprague-Dawley rat at 10 mg/kg, po by LC-MS/MS analysis; assay type: ADME, organism-based; conditions: in vivo
[43] = Plasma protein binding in rat assessed as unbound fraction by rapid equilibrium dialysis; assay type: ADME, cell-free
[44] = AUC (0 to infinity) in Sprague-Dawley rat at 10 mg/kg, po by LC-MS/MS analysis; assay type: ADME, organism-based; set-up: dose 10 mg/kg, route po; conditions: in vivo
[45] = target: T3, D(4) dopamine receptor (Homo sapiens) (UniProt P21917); test: Antagonist activity at human D4 receptor relative to control; assay type: functional; set-up: scale not given: the % may be the effect or the level left; conditions: filed as antagonist
T3 sequence (whole entry): T2 sequence (P21917 whole entry)

COc1ccc(-c2cc(C(=O)N[C@H]3CCCN(C)C3)nn2C)c(Cl)c1
bioavailability [1]: 43.8%
fraction unbound [2]: 0.25
Activity [3]: Active
Cmax [4]: 350 nM
Kp uu at 6 h [5]: 1.4
CLint [6]: 20.8 µL/min/1e6 cells
microsomal CLint [7]: 27.7 µL/min/mg
Activity [8]: Active
Activity [9]: Active
fraction unbound [10]: 0.053
Activity [11]: 84%
half-life [12]: 7.8 h
fraction unbound [13]: 0.068
fraction unbound [14]: 0.3
Activity [15]: Active
IC50 [16]: 86 nM
Activity [17]: 62%
bioavailability [18]: 11%
clearance [19]: 38.2 mL/min/kg
CLint [20]: 3.7 µL/min/1e6 cells
concentration at 2 h [21]: 1820 nM
IC50 [22]: 1290 nM
CLint [23]: 25.1 µL/min/1e6 cells
AUC [24]: 13.5 ng·h/mL
microsomal CLint [25]: 2.8 µL/min/mg
Activity [26]: Active
Activity [27]: Dose-Dependent Effect
microsomal CLint [28]: 33.3 µL/min/mg
IC50 [29]: 44700 nM
Activity [30]: 13%
Vd [31]: 12.3 L/kg
microsomal CLint [32]: 31.2 µL/min/mg
Activity [33]: 51%
Vd [34]: 11.4 L/kg
IC50 [35]: 2560 nM
IC50 [36]: 657 nM
Activity [37]: Active
Drug uptake [38]: Dose-Dependent Effect
Activity [39]: 18.9%
CLint [40]: 32.3 µL/min/1e6 cells
AUC(0-inf) [41]: 205 ng·h/mL
half-life [42]: 5.9 h
fraction unbound [43]: 0.202
AUC(0-inf) [44]: 775 ng·h/mL
Activity [45]: 90%
